Laboratory results from patent publication US20160250245A1, “Methods and Pharmaceutical Composition for the Treatment of Polyomavirus Infections” (INSERM (INSTITUT NATIONAL DE LA SANTÉ ET DE LA RECHERCHE …, priority 2013, published 2016).

Assays:
BKV (Dunlop strain) = assay: BKV replication in RPTEC primary cells, extracellular BKV DNA load by qPCR; format: cell-based, BK virus
Method: (§1) For each assay, one cell aliquot containing 2×10^6 cells was thawed and cells were cultured for six days in one 75 cm^2 culture flask. Cells were then trypsinized, washed, resuspended and seeded at 5×10^4 cells/well in 1 ml medium in flat bottom 24-well collagen-coated microplates. After 48 h incubation, medium was replaced with fresh REBM base medium without grown factors and supplemented with inactivated fetal bovine serum (FBS Brazilian origin, Lonza) and penicillin-streptomycin 10000 U/μg to a final concentration of 2% and 1% respectively. 48 h later, cells at 95% confluence were infected with 1×10^9 genomes per well. After 4 h incubation (37° C., 5% CO2), medium was removed and replaced with 1 ml of fresh medium without grown factors after two washes with and without gemcitabine or cidofovir at the indicated concentrations. 72 h later, at day 3 of treatment, supernatants were harvested and frozen at −80° C. and medium was replaced with fresh medium without grown factors and with the indicated concentrations of gemcitabine or cidofovir. After 48 h incubation, at day 5 of treatment, cell culture supernatants were harvested and frozen at −80° C.
(§2) Extracellular DNA was extracted from 100 μL frozen supernatants using the automated nucleic acids extractor Nuclisens Easymag (BioMérieux, Marcy l'Etoile, France) following the manufacturer's Generic 2.0.1 procedure. Extracts were resuspended in a final volume of 25 μL buffer 3.
(§3) To quantify extracellular BKV DNA load, a quantitative PCR (qPCR) was done using the following primers (Eurofins MWG Operon) and probe (Applied Biosystem, UK): […]
(§4) Reactions were performed in a total volume of 25 μl with 5 μL of DNA extract, […] TaqMan Universal PCR Master Mix (Applied Biosystems, Hoffmann La Roche, Meylan, France), 6.5 μL H2O, 2.5 μL of each primer at 30 μM and 1 μL of probe at 10 μM.
(§5) Amplification was performed using the Rotor-Gene 6000 (Corbett Life Science) with the following PCR program: 50° C., 2 min; denaturation at 95° C., 10 min; and 45 cycles of 95° C., 15 sec; 60° C., 60 sec. Quantification was calculated with an external calibration curve using BKV plasmid constructs.

BKV (Dunlop) = assay: BKV replication in Vero cell line, extracellular BKV DNA load by qPCR; format: cell-based, BK virus; conditions: Vero cells
Method: (§6) For each assay, one cell aliquot was thawed and cells cultured for three days in one 25 cm^2 culture flask. Cells were then trypsinized, washed, resuspended and seeded at 1×10^4 cells/well in […] in flat bottom 96-well microplates. After 24 h incubation, cells at 75% confluence were infected with 1×10^9 genomes per well in BK medium (199 medium with 2% FBS, 2% HEPES, 1% penicillin-streptomycin 10000 U/μg final concentration). After 4 h incubation (37° C., 5% CO2), medium was removed and replaced with 200 μL of fresh BK medium after four washes. 72 h later, medium was replaced with fresh BK medium with or without gemcitabine at the indicated final concentrations. After 48 h incubation, cell culture supernatants were harvested and frozen at −80° C.
as §2, §3, §4, §5

Vero cell line = format: cell-based, Cercopithecus aethiops; conditions: Vero cell culture system
Method: as §6
(§7) Cytotoxicity was analyzed by two colorimetric assays using the “Cytotoxicity Detection Kit (LDH)” and “Cell proliferation ELISA, BrdU” (Roche Diagnostics, Meylan, France).
The quantity of LDH was measured in cell culture supernatants and cells from every wells used for the quantification of virus replication including infected and non-infected wells and in presence or not of gemcitabine at the end of the test period according to the manufacturer's protocol. Absorbance at 492 nm (sample) and at 620 nm (background) was recorded 30 min after addition of the reaction mixture. Medium alone served as blank. […]

RPTEC primary cells = assay: Cytotoxicity / cell growth by LDH activity in RPTEC primary cells; format: cell-based, human
Method: as §1, §7
The quantity of LDH was measured in cell culture supernatants and cells from every wells used for the quantification of virus replication including infected and non-infected wells and in presence or not of gemcitabine at the end of the test period according to the manufacturer's protocol. Absorbance at 492 nm (sample) and at 620 nm (background) was recorded 30 min after addition of the reaction mixture. Medium alone served as blank. Measure of LDH activity in culture supernatants was used to monitoring cell lysis and the activity in cell lysates to monitoring cell viability and mass at 72 and 120 h p.i

T antigen = assay: Immunofluorescence of T antigen expression in infected RPTEC cells; format: cell-based, BK virus; conditions: 5 days of treatment
Method: (§8) For each assay, one cell aliquot containing 2×10^6 cells was thawed and cells were cultured for six days in one 75 cm^2 culture flask. Cells were then trypsinized, washed, resuspended and seeded at 5×10^4 cells/well in 1 ml medium in flat bottom 24-well collagen-coated microplates. After 48 h incubation, medium was replaced with fresh REBM base medium without grown factors and supplemented with inactivated fetal bovine serum (FBS Brazilian origin, Lonza) and penicillin-streptomycin 10000 U/μg to a final concentration of 2% and 1% respectively. 48 h later, cells at 95% confluence were infected with 1×10^9 genomes per well. After 4 h incubation (37° C., 5% CO2), medium was removed and replaced with 1 ml of fresh medium without grown factors after two washes with and without gemcitabine or cidofovir at the indicated concentrations. 72 h later, at day 3 of treatment, supernatants were harvested and frozen at −80° C. and medium was replaced with fresh medium without grown factors and with the indicated concentrations of gemcitabine or cidofovir. After 48 h incubation, at day 5 of treatment, cell culture supernatants were harvested and frozen at −80° C. […]

VP-1 = assay: Immunofluorescence of VP-1 expression in infected RPTEC cells; format: cell-based, BK virus; conditions: 5 days of treatment
Method: as §8

SMILES	concentration range repressing BKV replication (BKV (Dunlop strain); RPTEC, same conditions as gemcitabine)	IC50 (BKV (Dunlop); Betapolyomavirus hominis, 48 h, BKV Dunlop, two days of treatment, read-out: IC50, inhibition of viral replication)	IC90 (BKV (Dunlop); Betapolyomavirus hominis, 48 h, BKV Dunlop, two days of treatment, read-out: IC90, inhibition of viral replication)	inhibition of viral replication (BKV (Dunlop); concentration as low as 10 nM, in two days)	IC50 specificity index (Vero cell line)	IC50 (BKV (Dunlop strain); Betapolyomavirus hominis, RPTEC, BKV Dunlop, read-out: IC50, inhibition of viral replication)	IC90 (BKV (Dunlop strain); Betapolyomavirus hominis, RPTEC, BKV Dunlop, read-out: IC90, inhibition of viral replication)	inhibitory effect on viral replication, 5 days versus 3 days of treatment (BKV (Dunlop strain); RPTEC)	concentrations repressing BKV replication (BKV (Dunlop strain); summary: two different cellular models, including primary renal epithelial cells)	toxicity (RPTEC primary cells)	effect on cellular growth (LDH) at higher concentrations (RPTEC primary cells; RPTEC, 50 nM range)	effect on cellular growth measured by the intracellular LDH activity (RPTEC primary cells; infected RPTEC, effective antiviral concentrations (up to 10 nM), day 5)	expression of the early protein antigen T (T antigen)	expression of the late capsid protein VP-1 (VP-1)
Nc1ccn(C[C@@H](CO)OCP(=O)(O)O)c(=O)n1 [cidofovir]	μM range	–	–	–	–	–	–	–	–	–	–	–	–	–
Nc1ccn(C2OC(CO)C(O)C2(F)F)c(=O)n1 (centres unmarked) [gemcitabine, 4-amino-1-[3,3-difluoro-4-hydroxy-5-(hydroxymethyl)tetrahydrofuran-2-yl]-1H-pyrimidin-2-one]	–	1.5 to 2 nM	2.5 to 5 nM	totally inhibited	≥ 10	~10 nM	~50 nM	higher after 5 days than after 3 days	~10 nM	no toxicity was observed	seemed to slow down	could suppress the inhibitory effect of viral infection on the cellular growth	inhibited	inhibited
